From US12630536B2, “Cyanotriazine derivative, preparation method therefor, and application thereof” (Chengdu Fanxi Biopharma Co., LTD., priority 2020, dated 2026)

Experiments:
[1] = test system: TR alpha-UAS-bla HEK 293T Cells; test: TR cell-based agonist detection, β-lactamase reporter (LiveBLAzer FRET B/G), TR alpha; conditions: Homo sapiens
Protocol: (§1) A method for testing a THR-α/β activation activity of a compound by an in-vitro cell level was as follows.
(§2) Compounds were transferred to a 384-well plate by an ECHO liquid workstation, and each compound was diluted by 3 times with 10 gradient concentrations, which was in triplicate. 1.5×10^4 DMEM-cultured cells (TR beta-UAS-bla HEK 293T Cells) or 1.0×10^4 TR alpha-UAS-bla HEK 293T Cells were placed in the 384-well plate. HEK 293T-TR beta was incubated in an incubator for 16 hours, and HEK 293T-TR alpha was incubated in an incubator for 24 hours. A LiveBLAzer™-FRET B/G (CCF4-AM) substrate was added into the cell plate to detect expression of β-lactamase in cells, and under excitation of 409 nm, a product produced fluorescence with a wavelength of 447 nm. When the β-lactamase was not expressed, under excitation of 409 nm, fluorescence with a wavelength of 520 nm was directly produced through FRET. Combination between the compound and the protein was determined by detecting a ratio of the two kinds of fluorescence (blue/green, 460 nm/530 nm), thus calculating EC50 of the compound. […] Calculation of a factor Z (greater than 0.5) would be used for monitoring a stability of each experiment.

[2] = test system: TR beta-UAS-bla HEK 293T Cells; test: TR cell-based agonist detection, β-lactamase reporter (LiveBLAzer FRET B/G), TR beta
Protocol: as §1, §2

[3] = test system: golden hamsters fed with high-fat feedstuffs (hyperlipidemia model); test: In-vivo pharmacodynamic test, high-fat feed hyperlipidemia model; conditions: oral once per day, 4 weeks
Protocol: Administration mode: oral administration was carried out once per day with a time interval of 24 hours for 4 consecutive weeks. During the experiment, the animals were weighed twice per week, and a remaining amount and an adding amount of the feedstuffs were recorded before each blood sampling detection for calculating a food intake of each group of animals during administration.
The food utilization rate represents a weight gain in gram of an animal taking per 100 g of feedstuffs, so that food utilization rate=weight gain (g)/food intake (100 g)×100%.

Compound: CC(C)c1cc(Oc2c(Cl)cc(-n3nc(C#N)c(=O)[nH]c3=O)cc2Cl)n[nH]c1=O [MGL3196, reference compound]
- Emax ([1]; HEK-293T, 24 h, TR_cell-based agonist, TR_α, read-out: Maximum activity ratio): 134%
- EC50 ([1]; Detection of TR_cell-based agonist, HEK 293T-TR alpha, 24 hours, read-out: TR_α_EC50): 2770 nM
- Emax ([2]; Homo sapiens, HEK-293T, 16 h, TR_cell-based agonist, TR_β, read-out: Maximum activity ratio (A460/A530)): 37.7%
- EC50 ([2]; Homo sapiens, Detection of TR_cell-based agonist, HEK 293T-TR beta, 16 hours, read-out: TR_β_EC50): 1050 nM
- α/β ([2]; TR_cell-based agonist, ratio TR_α EC50 / TR_β EC50): 2.62
- food utilization rate (weight gain (g)/food intake (100 g)×100%) [3]: increased to some extent
